Laboratory results from patent US11154544B2, “Amide derivatives as Nav1.7 and Nav1.8 blockers” (RaQualia Pharma Inc., priority 2017, dated 2021).

Each compound was assayed against Nav1.7 (Homo sapiens (Human), UniProt Q15858) (assay: EFS-FRET assay). Conditions: EFS-FRET, CHO cells expressing human Nav1.7; read-out: IC50 against Nav1.7.
Type: cell-based
Method: This screen is used to determine the effects of compounds on human Nav1.7 channels, utilizing electrical field stimulation (EFS) system in 96-well plate format on FDSS (Hamamatsu Photonics) platform. The change of membrane potential is monitored with FRET dye pair, DiSBAC2(3) and PTS 18.
CHO (Chinese hamster ovary) cells expressing human Nav1.7 channels are grown in T225 flasks, in a 5% CO2 humidified incubator to about 80% confluence. Media composition consists of HAM/F^.12 with Glutamax I, 10% FCS, 100 units/mL penicillin and 100 microgram/mL hygromycin.
Seed each cell lines (1×10^5 cells/well) into 96-well plates prior to experimentation.
Incubate at 37° C. in 5% CO2, for 24 hours.
Wash each well with assay buffer (140 mM NaCl, […], 10 mM D-Glucose, 2 mM CaCl2, 1 mM MgCl2, 10 mM HEPES, pH 7.4 adjusted with NaOH) twice.
Add 1st loading solution containing 10 microM PTS18 and 0.06% Pluronic F-127 in assay buffer.
Incubate the plate at rt in dark for 1 hour. • Remove 1st loading solution and add 2nd loading solution containing 12.5 microM DiSBAC2(3), 1.25 mM Xylene Fast Yellow and 0.0075% Pluronic F-127 in assay buffer. • Place the plate under the dark at rt for 25 minutes. • Add compound solutions into the assay plate. • Set the assay plate in FDSS and place an EFS device on the plate. • Measure EFS-induced fluorescent response by FDSS.
The data are analyzed and reported as normalized ratios of intensities measured at […]. The process of calculating these ratios is performed as follows:
This analysis is performed using a computerized specific program designed for
FDSS generated data. Fluorescence ratio values are plotted using XLfit to determine an IC50 value for each, compound.

Chain of Nav1.7 (Q15858 whole entry): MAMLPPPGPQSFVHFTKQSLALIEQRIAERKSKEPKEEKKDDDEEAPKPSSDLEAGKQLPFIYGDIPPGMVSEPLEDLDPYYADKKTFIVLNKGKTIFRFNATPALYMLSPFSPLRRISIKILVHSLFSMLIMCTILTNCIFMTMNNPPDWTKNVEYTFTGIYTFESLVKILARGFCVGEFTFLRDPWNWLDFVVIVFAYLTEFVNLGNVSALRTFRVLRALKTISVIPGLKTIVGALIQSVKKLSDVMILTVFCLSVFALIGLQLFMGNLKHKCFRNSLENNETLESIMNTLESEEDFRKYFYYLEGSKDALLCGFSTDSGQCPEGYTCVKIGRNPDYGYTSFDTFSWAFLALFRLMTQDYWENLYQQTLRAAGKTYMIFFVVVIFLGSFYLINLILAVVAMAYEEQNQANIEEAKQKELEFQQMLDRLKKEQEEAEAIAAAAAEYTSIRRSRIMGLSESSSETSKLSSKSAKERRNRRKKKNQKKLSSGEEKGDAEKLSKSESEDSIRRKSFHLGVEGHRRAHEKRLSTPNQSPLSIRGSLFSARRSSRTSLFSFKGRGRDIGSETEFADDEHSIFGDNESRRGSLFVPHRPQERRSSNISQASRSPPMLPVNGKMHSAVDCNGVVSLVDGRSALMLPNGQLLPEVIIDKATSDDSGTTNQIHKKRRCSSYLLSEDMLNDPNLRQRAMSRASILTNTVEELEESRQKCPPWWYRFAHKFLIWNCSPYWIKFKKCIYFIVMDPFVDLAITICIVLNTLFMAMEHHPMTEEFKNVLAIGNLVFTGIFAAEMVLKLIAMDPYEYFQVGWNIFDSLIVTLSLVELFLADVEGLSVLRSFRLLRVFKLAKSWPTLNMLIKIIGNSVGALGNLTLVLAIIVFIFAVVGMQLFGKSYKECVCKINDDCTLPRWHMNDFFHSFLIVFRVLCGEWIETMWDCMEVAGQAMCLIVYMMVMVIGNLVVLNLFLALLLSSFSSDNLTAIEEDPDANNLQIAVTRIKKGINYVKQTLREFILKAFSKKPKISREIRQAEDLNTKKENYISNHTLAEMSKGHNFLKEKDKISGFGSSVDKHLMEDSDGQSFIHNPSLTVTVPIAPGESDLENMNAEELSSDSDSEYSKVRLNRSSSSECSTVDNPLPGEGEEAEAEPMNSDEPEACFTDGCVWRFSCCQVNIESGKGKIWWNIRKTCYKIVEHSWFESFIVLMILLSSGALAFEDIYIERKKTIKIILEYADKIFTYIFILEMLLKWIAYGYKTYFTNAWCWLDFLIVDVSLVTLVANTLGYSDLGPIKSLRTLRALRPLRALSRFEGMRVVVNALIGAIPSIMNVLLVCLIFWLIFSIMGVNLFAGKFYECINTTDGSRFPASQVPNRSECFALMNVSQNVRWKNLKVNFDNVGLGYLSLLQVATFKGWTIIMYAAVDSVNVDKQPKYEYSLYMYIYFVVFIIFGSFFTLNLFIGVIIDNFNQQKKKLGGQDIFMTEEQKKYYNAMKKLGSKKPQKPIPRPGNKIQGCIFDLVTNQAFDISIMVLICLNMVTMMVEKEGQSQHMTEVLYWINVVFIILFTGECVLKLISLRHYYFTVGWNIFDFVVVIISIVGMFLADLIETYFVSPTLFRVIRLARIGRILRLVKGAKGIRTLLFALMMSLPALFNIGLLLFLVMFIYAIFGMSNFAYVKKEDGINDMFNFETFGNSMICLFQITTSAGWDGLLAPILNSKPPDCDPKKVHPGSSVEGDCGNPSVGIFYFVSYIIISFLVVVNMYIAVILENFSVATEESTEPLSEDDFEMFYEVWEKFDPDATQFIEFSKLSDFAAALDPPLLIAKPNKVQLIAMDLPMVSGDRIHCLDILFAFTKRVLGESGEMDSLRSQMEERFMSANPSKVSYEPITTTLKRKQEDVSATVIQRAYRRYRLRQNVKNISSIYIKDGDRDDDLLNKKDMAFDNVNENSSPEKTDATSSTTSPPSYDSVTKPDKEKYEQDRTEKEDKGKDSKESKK

Compound | IC50
CC(=O)Nc1cc(C(=O)NCCNc2ncc(C(F)(F)F)cc2Cl)ccn1 [Example 2] | < 500 nM
CC(C)C(=O)Nc1cc(C(=O)NCCNc2ncc(C(F)(F)F)cc2Cl)ccn1 [Example 7] | < 500 nM
CC(=O)Nc1cc(C(=O)NCCOc2ncc(C(F)(F)F)cc2Cl)cc(C)n1 [Example 10] | < 500 nM
CCC(=O)Nc1cc(C(=O)NCCOc2ncc(C(F)(F)F)cc2Cl)cc(C)n1 [Example 15] | < 500 nM
Cc1cc(C(=O)NCCOc2ncc(C(F)(F)F)cc2Cl)nc(NC(=O)C2CC2)n1 [Example 16] | < 500 nM
CC(=O)Nc1cc(C(=O)NCCOc2cccc(OC(F)(F)F)c2)cc(C)n1 [Example 19] | < 500 nM
CCC(=O)Nc1cc(C(=O)NCCOc2ccc(C(F)(F)F)cc2Cl)ccn1 [Example 21] | < 500 nM
CC(C)C(=O)Nc1cc(C(=O)NCCOc2ccc(C(F)(F)F)cc2Cl)ccn1 [Example 22] | < 500 nM
CC(=O)Nc1cc(C(=O)NCCOc2ccc(C(F)(F)F)cc2Cl)cc(C)n1 [Example 23] | < 500 nM
Cc1cc(C(=O)NCCOc2ncc(C(F)(F)F)cc2Cl)cc(NC(=O)C2CC2)n1 [Example 25] | < 500 nM
Cc1cc(C(=O)NCCNc2ncc(C(F)(F)F)cc2Cl)cc(NC(=O)C2CC2)n1 [Example 26] | < 500 nM
CC(=O)Nc1cc(C(=O)NCCCc2ncc(C(F)(F)F)cc2Cl)cc(C)n1 [Example 28] | < 500 nM
CCC(=O)Nc1cc(C(=O)NCCCc2ncc(C(F)(F)F)cc2Cl)ccn1 [Example 30] | < 500 nM
CC(=O)Nc1cc(C(=O)NCCOc2ccc(S(F)(F)(F)(F)F)cc2)cc(C)n1 [Example 31] | < 500 nM
O=C(NCCOc1ccc(S(F)(F)(F)(F)F)cc1)c1ccnc(NC(=O)C2CC2)c1 [Example 33] | < 500 nM
CC(C)C(=O)Nc1cc(C(=O)NCCOc2ccc(S(F)(F)(F)(F)F)cc2)ccn1 [Example 34] | < 500 nM
Cc1cc(C(=O)NCCNc2ncc(C(F)(F)F)cc2Cl)cc(NC(=O)C(C)C)n1 [Example 37] | < 500 nM
CCC(=O)Nc1cc(C(=O)NCCOc2ccc(C(F)(F)F)cc2Cl)cc(C)n1 [Example 39] | < 500 nM
O=C(NCCOc1ccc(C(F)(F)F)cc1Cl)c1ccnc(NC(=O)C2CC2)c1 [Example 40] | < 500 nM
Cc1cc(C(=O)NCCOc2ccc(C(F)(F)F)cc2Cl)cc(NC(=O)C2CC2)n1 [Example 41] | < 500 nM
Cc1cc(C(=O)NCCOc2ccc(C(F)(F)F)cc2Cl)cc(NC(=O)C(C)C)n1 [Example 42] | < 500 nM
CCC(=O)Nc1cc(C(=O)NCCOc2ccc3cc(C(F)(F)F)ccc3n2)cc(C)n1 [Example 44] | < 500 nM
CCC(=O)Nc1cc(C(=O)NCCOc2ccc3cc(OCC(F)(F)F)ccc3c2)cc(C)n1 [Example 49] | < 500 nM
CC(=O)Nc1cc(C(=O)NCCSc2ncc(C(F)(F)F)cc2Cl)cc(C)n1 [Example 54] | < 500 nM
CC(=O)Nc1cc(C(=O)NCCOc2ccc3cc(C(F)(F)F)ccc3n2)ccn1 [Example 56] | < 500 nM

Compound | IC50
CCC(=O)Nc1cc(C(=O)NCCOc2ccc3cc(C(F)(F)F)ccc3n2)ccn1 [Example 57] | < 500 nM
CC(=O)Nc1cc(C(=O)NCCOc2ccc3cc(C(F)(F)F)ccc3n2)cc(C)n1 [Example 58] | < 500 nM
Cc1cc(C(=O)NCCOc2ccc3cc(C(F)(F)F)ccc3n2)cc(NC(=O)C2CC2)n1 [Example 59] | < 500 nM
Cc1cc(C(=O)NCCOc2ccc3cc(C(F)(F)F)ccc3n2)cc(NC(=O)C(C)C)n1 [Example 60] | < 500 nM
CCC(=O)Nc1cc(C(=O)N[C@H](C)COc2ncc(C(F)(F)F)cc2Cl)ccn1 [Example 64] | < 500 nM
CC(=O)Nc1cc(C(=O)N[C@H](C)COc2ncc(C(F)(F)F)cc2Cl)cc(C)n1 [Example 65] | < 500 nM
CCC(=O)Nc1cc(C(=O)N[C@H](C)COc2ncc(C(F)(F)F)cc2Cl)cc(C)n1 [Example 66] | < 500 nM
CC(C)C(=O)Nc1cc(C(=O)N[C@H](C)COc2ncc(C(F)(F)F)cc2Cl)ccn1 [Example 68] | < 500 nM
Cc1cc(C(=O)N[C@H](C)COc2ncc(C(F)(F)F)cc2Cl)cc(NC(=O)C2CC2)n1 [Example 69] | < 500 nM
C[C@H](COc1ncc(C(F)(F)F)cc1Cl)NC(=O)c1ccnc(NC(=O)C2CC2)n1 [Example 71] | < 500 nM
CCC(=O)Nc1cc(C(=O)NC[C@@H](C)Oc2ncc(C(F)(F)F)cc2Cl)cc(C)n1 [Example 74] | < 500 nM
Cc1cc(C(=O)NC[C@@H](C)Oc2ncc(C(F)(F)F)cc2Cl)cc(NC(=O)C2CC2)n1 [Example 76] | < 500 nM
Cc1cc(C(=O)NC[C@@H](C)Oc2ncc(C(F)(F)F)cc2Cl)cc(NC(=O)C(C)C)n1 [Example 77] | < 500 nM
CC(C)C(=O)Nc1cc(C(=O)NCCOc2ccnc3cc(C(F)(F)F)ccc23)ccn1 [Example 80] | < 500 nM
CCCC(=O)Nc1cc(C(=O)NCCOc2ncc(C(F)(F)F)cc2Cl)ccn1 [Example 87] | < 500 nM
Cc1cc(C(=O)NCCOc2ncc(C(F)(F)F)cc2Cl)nc(NC(=O)C(C)C)n1 [Example 90] | < 500 nM
CC(=O)Nc1cc(C(=O)NCCOc2ccc(C(F)(F)F)cc2F)cc(C)n1 [Example 93] | < 500 nM
CCC(=O)Nc1cc(C(=O)NCCOc2ccc(C(F)(F)F)cc2F)cc(C)n1 [Example 94] | < 500 nM
CC(C)C(=O)Nc1cc(C(=O)NCCOc2ccc(C(F)(F)F)cc2F)ccn1 [Example 96] | < 500 nM
Cc1cc(C(=O)NCCOc2ccc(C(F)(F)F)cc2F)cc(NC(=O)C(C)C)n1 [Example 98] | < 500 nM
CC(C)C(=O)Nc1cc(C(=O)NCCOc2ccc(OC(F)(F)F)cc2Cl)ccn1 [Example 107] | < 500 nM
Cc1cc(C(=O)NCCOc2ccc(OC(F)(F)F)cc2Cl)cc(NC(=O)C(C)C)n1 [Example 108] | < 500 nM
O=C(NCCOc1ccc(OC(F)(F)F)cc1Cl)c1ccnc(NC(=O)C2CC2)c1 [Example 117] | < 500 nM
CC(C)C(=O)Nc1cc(C(=O)NCCCOc2ncc(C(F)(F)F)cc2Cl)ccn1 [Example 123] | < 500 nM
COc1cc(C(F)(F)F)ccc1OCCNC(=O)c1ccnc(NC(C)=O)c1 [Example 126] | < 500 nM

Results, then the compound that gave them:

IC50 | Compound
< 500 nM | CCC(=O)Nc1cc(C(=O)NCCNc2ncc(C(F)(F)F)cc2Cl)cc(C)n1 [Example 5]
< 500 nM | O=C(NCCNc1ncc(C(F)(F)F)cc1Cl)c1ccnc(NC(=O)C2CC2)c1 [Example 6]
< 500 nM | CCC(=O)Nc1cc(C(=O)NCCOc2ncc(C(F)(F)F)cc2Cl)ccn1 [Example 9]
< 500 nM | CCC(=O)Nc1cc(C(=O)NCCOc2ccc(C(F)(F)F)cn2)cc(C)n1 [Example 12]
< 500 nM | O=C(NCCOc1ncc(C(F)(F)F)cc1Cl)c1ccnc(NC(=O)C2CC2)c1 [Example 14]
< 500 nM | CCC(=O)Nc1cc(C(=O)NCCOc2ccc(S(F)(F)(F)(F)F)cc2)ccn1 [Example 32]
< 500 nM | O=C(NCCOc1ncc(C(F)(F)F)cc1Cl)c1ccnc(NC(=O)C2CC2)n1 [Example 36]
< 500 nM | O=C(NCCNc1ncc(C(F)(F)F)cc1Cl)c1ccnc(NC(=O)C2CC2)n1 [Example 38]
< 500 nM | O=C(NCCOc1ccc(C(F)(F)F)cc1Cl)c1ccnc(NC(=O)C2CC2)n1 [Example 43]
< 500 nM | O=C(NCCOc1ccc2cc(C(F)(F)F)ccc2n1)c1ccnc(NC(=O)C2CC2)c1 [Example 45]
< 500 nM | CC(C)C(=O)Nc1cc(C(=O)NCCOc2ccc3cc(C(F)(F)F)ccc3n2)ccn1 [Example 46]
< 500 nM | C[C@H](COc1ncc(C(F)(F)F)cc1Cl)NC(=O)c1ccnc(NC(=O)C2CC2)c1 [Example 67]
< 500 nM | Cc1cc(C(=O)N[C@H](C)COc2ncc(C(F)(F)F)cc2Cl)cc(NC(=O)C(C)C)n1 [Example 70]
< 500 nM | CC(=O)Nc1cc(C(=O)NC[C@@H](C)Oc2ncc(C(F)(F)F)cc2Cl)cc(C)n1 [Example 73]
< 500 nM | CCC(=O)Nc1nc(C)cc(C(=O)NCCOc2ncc(C(F)(F)F)cc2Cl)n1 [Example 89]
< 500 nM | Cc1cc(C(=O)NCCOc2ccc(C(F)(F)F)cc2F)cc(NC(=O)C2CC2)n1 [Example 97]
< 500 nM | CCC(=O)Nc1cc(C(=O)NCCOc2ccc(OC(F)(F)F)cc2Cl)cc(C)n1 [Example 105]
< 500 nM | O=C(NCCOc1ccc(OC(F)(F)F)cc1Cl)C1C=C(NC(=O)C2CC2)N=CC1 (stereo not shown) [Example 106]
< 500 nM | CC(=O)Nc1cc(C(=O)NCCOc2ccc(OC(F)(F)F)cc2Cl)ccn1 [Example 113]
< 500 nM | CCC(=O)Nc1cc(C(=O)NCCOc2ccc(OC(F)(F)F)cc2Cl)ccn1 [Example 114]
< 500 nM | Cc1cc(C(=O)NCCOc2ccc(OC(F)(F)F)cc2Cl)cc(NC(=O)C2CC2)n1 [Example 115]
< 500 nM | CC(=O)Nc1cc(C(=O)NCCOc2ccc(OC(F)(F)F)cc2Cl)cc(C)n1 [Example 116]
< 500 nM | CCC(=O)Nc1cc(C(=O)NCCCNc2ncc(C(F)(F)F)cc2Cl)ccn1 [Example 119]
